Measured values: patent US6472348B1, “Pyridone derivatives and herbicides” (Kumiai Chemical Industry Co., Ltd., priority 1996, dated 2002)

Experiments:
[1] = system: barnyardgrass (Ec); assay: Test Example 1: herbicidal effects by paddy field soil treatment; format: in vivo; details: 100 g of the active ingredient per 10 ares, 21st day after the application, index 0-5 of Table 47;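 also: grade of growth control; 5 = at least 90%; 4 = 70 to 90%; 3 = 50 to 70%; 2 = 30 to 50%; 1 = 10 to 30%; 0 = under 10%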
Procedure, shortened: (§1)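 Greenhouse pot test in flooded paddy soil, dosed at 100 g a.i. per 10 ares; effect scored on day 21.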

[2] = system: bulrush (Sc); assay: as above; format: in vivo; details: 100 g of the active ingredient per 10 ares, 21st day after the application, index 0-5 of Table 47;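 also: grade of growth control; 5 = at least 90%; 4 = 70 to 90%; 3 = 50 to 70%; 2 = 30 to 50%; 1 = 10 to 30%; 0 = under 10%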
Procedure, shortened: as §1

[3] = system: monochoria (Mo); assay: as above; format: in vivo; details: 100 g of the active ingredient per 10 ares, 21st day after the application, index 0-5 of Table 47;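 also: grade of growth control; 5 = at least 90%; 4 = 70 to 90%; 3 = 50 to 70%; 2 = 30 to 50%; 1 = 10 to 30%; 0 = under 10%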
Procedure, shortened: as §1

[4] = system: Diaitaria ciliaris (Di); assay: Test Example 3: herbicidal effects by upland field foliage treatment; format: in vivo; design: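 grade of growth control; 5 = at least 90%; 4 = 70 to 90%; 3 = 50 to 70%; 2 = 30 to 50%; 1 = 10 to 30%; 0 = under 10%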
Procedure, shortened: (§2)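 Scoring used a standard effect scale on the 14th day post-treatment, with plants held in a greenhouse throughout. Foliar application was made to weeds raised from seed in sand-filled pots for 2 weeks.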

[5] = system: barnyardgrass (Ec); assay: as above; format: in vivo; design: scale not given here
Procedure, shortened: as §2

[6] = system: common lambsquarters (Ch); assay: as above; format: in vivo; design: scale not given here
Procedure, shortened: as §2

[7] = system: pale smartweed (Po); assay: as above; format: in vivo; design: scale not given here
Procedure, shortened: as §2

[8] = system: rice flatsedge (Ci); assay: as above; format: in vivo; design: scale not given here
Procedure, shortened: as §2

[9] = system: slender amaranth (Am); assay: as above; format: in vivo; design: scale not given here
Procedure, shortened: as §2

[10] = system: wheat (Tr); assay: Test Example 9: crop plant selectivity by upland field foliage treatment (wheat), phytotoxicity; details: dose 1.6 g ai/10a, 14th day after treatment;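 also: grade of crop injury; 5 = at least 90%; 4 = 70 to 90%; 3 = 50 to 70%; 2 = 30 to 50%; 1 = 10 to 30%; 0 = under 10%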
Procedure, shortened: (§3)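 Wheat and weeds sown in sand-filled pots, grown 2 weeks in a greenhouse, then foliage-treated. Herbicidal effect and crop phytotoxicity were scored 14 days after treatment against a rating scale.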

[11] = system: China jute (Ab); assay: Test Example 9: crop plant selectivity by upland field foliage treatment (wheat), herbicidal effects; format: in vivo; design: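 grade of growth control; 5 = at least 90%; 4 = 70 to 90%; 3 = 50 to 70%; 2 = 30 to 50%; 1 = 10 to 30%; 0 = under 10%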; details: dose 1.6 g ai/10a, 14th day after treatment
Procedure, shortened: as §3

[12] = system: common lambsquarters (Ch); assay: as above; format: in vivo; design: scale not given here; details: dose 1.6 g ai/10a, 14th day after treatment
Procedure, shortened: as §3

[13] = system: pale smartweed (Po); assay: as above; format: in vivo; design: scale not given here; details: dose 1.6 g ai/10a, 14th day after treatment
Procedure, shortened: as §3

[14] = system: slender amaranth (Am); assay: as above; format: in vivo; design: scale not given here; details: dose 1.6 g ai/10a, 14th day after treatment
Procedure, shortened: as §3

[15] = system: soybean (Gl); assay: Test Example 10: crop plant selectivity by upland field foliage treatment (soybean), phytotoxicity; details: dose 1.6 g ai/10a, 14th day after treatment
Protocol: (§4) (Test on Crop Plant Selectivity by Upland Field Foliage Treatment)
(§5) In a plastic pot (surface area: 600 cm^2) filled with sand, soybean (Gl), pale smartweed (Po), slender amaranth (Am), common lambsquarters (Ch) and China jute (Ab) were sown and cultured in a green house for 2 weeks. […] The plants were then cultured in a green house, and the evaluation of the herbicidal effects and phytotoxicity was conducted on the 14th day after the treatment in accordance with the standards as identified in Table 47.

[16] = system: China jute (Ab); assay: Test Example 10: crop plant selectivity by upland field foliage treatment (soybean), herbicidal effects; format: in vivo; details: dose 1.6 g ai/10a, 14th day after treatment
Protocol: as §4, §5

[17] = system: common lambsquarters (Ch); assay: as above; format: in vivo; details: dose 1.6 g ai/10a, 14th day after treatment
Protocol: as §4, §5

[18] = system: pale smartweed (Po); assay: as above; format: in vivo; details: dose 1.6 g ai/10a, 14th day after treatment
Protocol: as §4, §5

[19] = system: slender amaranth (Am); assay: as above; format: in vivo; details: dose 1.6 g ai/10a, 14th day after treatment
Protocol: as §4, §5

[20] = system: corn (Ze); assay: Test Example 11: crop plant selectivity by upland field foliage treatment (corn), phytotoxicity; details: upland field foliage treatment, dose 1.6 g ai/10a, 14th day after treatment
Procedure, shortened: (§6)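 Corn and the weed species were sown together in sand-filled pots and grown in a greenhouse for 2 weeks before foliar treatment. Herbicidal effect was scored on day 14 after treatment against a graded standard scale, with corn phytotoxicity scored alongside.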

[21] = system: China jute (Ab); assay: Test Example 11: crop plant selectivity by upland field foliage treatment (corn), herbicidal effects; format: in vivo; design: scale not given here; details: upland field foliage treatment (corn test), dose 1.6 g ai/10a, 14th day after treatment
Procedure, shortened: as §6

[22] = system: common lambsquarters (Ch); assay: as above; format: in vivo; design: scale not given here; details: upland field foliage treatment (corn test), dose 1.6 g ai/10a, 14th day after treatment
Procedure, shortened: as §6

[23] = system: pale smartweed (Po); assay: as above; format: in vivo; design: scale not given here; details: upland field foliage treatment (corn test), dose 1.6 g ai/10a, 14th day after treatment
Procedure, shortened: as §6

[24] = system: slender amaranth (Am); assay: as above; format: in vivo; design: scale not given here; details: upland field foliage treatment (corn test), dose 1.6 g ai/10a, 14th day after treatment
Procedure, shortened: as §6

[25] = system: Digitaria ciliaris (Di); assay: Test Example 2: herbicidal effects by upland field soil treatment; format: in vivo; details: 100 g of the active ingredient per 10 ares, evaluated on the 21st day after application
From the text: (§7) (Test on Herbicidal Effects by Upland Field Soil Treatment)

[26] = system: barnyardgrass (Ec); assay: as above; format: in vivo; details: 100 g of the active ingredient per 10 ares, evaluated on the 21st day after application
From the text: as §7

[27] = system: common lambsquarters (Ch); assay: as above; format: in vivo; details: 100 g of the active ingredient per 10 ares, evaluated on the 21st day after application
From the text: as §7

[28] = system: pale smartweed (Po); assay: as above; format: in vivo; details: 100 g of the active ingredient per 10 ares, evaluated on the 21st day after application
From the text: as §7

[29] = system: rice flatsedge (Ci); assay: as above; format: in vivo; details: 100 g of the active ingredient per 10 ares, evaluated on the 21st day after application
From the text: as §7

[30] = system: slender amaranth (Am); assay: as above; format: in vivo; details: 100 g of the active ingredient per 10 ares, evaluated on the 21st day after application
From the text: as §7

[31] = 100 g of the active ingredient per 10 ares, evaluated on the 14th day after treatment
[32] = 100 g active ingredient per 10 ares, evaluated 14th day after treatment

Row | SMILES | Herbicidal effects Ec [1] | Herbicidal effects Sc [2] | Herbicidal effects Mo [3] | Phytotoxicity Tr [10] | Herbicidal effects Ab [11] | Herbicidal effects Ch [12] | Herbicidal effects Po [13] | Herbicidal effects Am [14] | Phytotoxicity Ze [20] | Herbicidal effects Ab [21] | Herbicidal effects Ch [22] | Herbicidal effects Po [23] | Herbicidal effects Am [24] | also measured
1 | Cn1c(C(F)(F)F)ccc(-c2cc(Oc3ccccc3)c(Cl)cc2F)c1=O [Compound No. 1-22] | 5 | 5 | 5 | 2 | 5 | 5 | 5 | 5 | 2 | 5 | 5 | 5 | 5 | Herbicidal effects Di [4, 31]: 5; Herbicidal effects Ec [5, 31]: 5; Herbicidal effects Ch [6, 31]: 5; Herbicidal effects Po [7, 31]: 5; Herbicidal effects Ci [8, 31]: 5; Herbicidal effects Am [9, 31]: 5; Phytotoxicity Gl [15]: 2; Herbicidal effects Ab [16]: 5; Herbicidal effects Ch [17]: 5; Herbicidal effects Po [18]: 5; Herbicidal effects Am [19]: 5
2 | Cn1c(C(F)(F)F)ccc(-c2c(F)cc(Cl)c3oc(C(Br)Br)cc23)c1=O [Compound No. 4-27, 3-(7-chloro-2-dibromomethyl-5-fluorobenzofuran-4-yl)-1-methyl-6-trifluoromethyl-2-(1H)-pyridone] | 5 | 5 | 5 | 2 | 5 | 5 | 5 | 5 | 2 | 5 | 5 | 5 | 5 | Herbicidal effects Di [25]: 5; Herbicidal effects Ec [26]: 4; Herbicidal effects Ch [27]: 5; Herbicidal effects Po [28]: 5; Herbicidal effects Ci [29]: 5; Herbicidal effects Am [30]: 5; Herbicidal effects Di [4, 32]: 5; Herbicidal effects Ec [5, 32]: 4; Herbicidal effects Ch [6, 32]: 5; Herbicidal effects Po [7, 32]: 5; Herbicidal effects Ci [8, 32]: 5; Herbicidal effects Am [9, 32]: 5; melting point: 107 to 109 °C
